Key:
C57BL/6J mice = experiment: Survival after 11 Gy irradiation and bone marrow allograft; format: in vivo
From the text: The experimental design is depicted in FIG. 50.
Under the conditions of the mouse colony during this study, control mice receiving 100,000-500,000 cells are all dead between days 4-13 of study. […] Such activity would be of particular utility in settings, such as transplantation with umbilical cord stem cells, in which donor cell numbers are limited.

Hepatocyte stability = format: in vitro ADME; details: result in words
Procedure: (§1) Time to inhibition refers to the time needed to inhibit the generation of NADH by 15-PGDH from the moment with drug is added into the reaction mix. Delta™ refers to the shift in melting temperature of recombinant 15-PGDH in the presence of drug (with cofactor NADH also present). Concentration of Full Cell Line Reporter Induction refers to the concentration of drug that needs to be added to reporter cell line to achieve maximal induction of the 15-PGDH-luciferase gene fusion reporter cassette, as measured by luciferase assays. Hepatocyte stability refers to the half-life of compound in the presence of hepatocytes in culture. Toxicity refers to the concentration of compound needed to decrease cell numbers in a cell culture assay.

A549 cells = experiment: Cellular toxicity on A549 cells (CellTiter-Glo, cell numbers); format: cell-based
Procedure: as §1
FIGS. 38(A-C) show assays of cellular toxicity on A549 cells at 24 hours of 15-PGDH inhibitors as assayed by CellTiter-Glo measurement.
FIGS. 84(A-C) show at left (84A) activity in lowering PGE2 levels in media of A549 cells that are stimulated to produce PGE2 by treatment with IL1-beta.

## CCCC[S+]([O-])c1sc2nc(-c3cccs3)cc(-c3ccccc3)c2c1N (stereo not shown) [SW033291, 2-(butylsulfinyl)-4-phenyl-6-(thiophen-2-yl)thieno[2,3-b]pyridin-3-amine]
C57BL/6J mice; 5 mg/kg IP twice daily
  Survival of transplanted mice, in words: promoted survival of mice receiving a bone marrow transplant
C57BL/6J mice; 1 × 10^5 cells, Day 1
  Mouse survival (number of surviving mice): 3
C57BL/6J mice; 1 × 10^5 cells, Day 2
  Mouse survival (number of surviving mice): 3
C57BL/6J mice; 1 × 10^5 cells, Day 3
  Mouse survival (number of surviving mice): 3
C57BL/6J mice; 1 × 10^5 cells, Day 4
  Mouse survival (number of surviving mice): 2
C57BL/6J mice; 1 × 10^5 cells, Day 5
  Mouse survival (number of surviving mice): 1
C57BL/6J mice; 1 × 10^5 cells, Day 6
  Mouse survival (number of surviving mice): 0
C57BL/6J mice; 2 × 10^5 cells, Day 1
  Mouse survival (number of surviving mice): 3
C57BL/6J mice; 2 × 10^5 cells, Day 2
  Mouse survival (number of surviving mice): 3
C57BL/6J mice; 2 × 10^5 cells, Day 3
  Mouse survival (number of surviving mice): 3
C57BL/6J mice; 2 × 10^5 cells, Day 4
  Mouse survival (number of surviving mice): 3
C57BL/6J mice; 2 × 10^5 cells, Day 5
  Mouse survival (number of surviving mice): 3
C57BL/6J mice; 2 × 10^5 cells, Day 6
  Mouse survival (number of surviving mice): 2
C57BL/6J mice; 2 × 10^5 cells, Day 7
  Mouse survival (number of surviving mice): 2
C57BL/6J mice; 2 × 10^5 cells, Day 8
  Mouse survival (number of surviving mice): 2
C57BL/6J mice; 2 × 10^5 cells, Day 9
  Mouse survival (number of surviving mice): 2
C57BL/6J mice; 2 × 10^5 cells, Day 10
  Mouse survival (number of surviving mice): 2
C57BL/6J mice; 2 × 10^5 cells, Day 11
  Mouse survival (number of surviving mice): 2
C57BL/6J mice; 2 × 10^5 cells, Day 12
  Mouse survival (number of surviving mice): 1
C57BL/6J mice; 2 × 10^5 cells, Day 13
  Mouse survival (number of surviving mice): 0
C57BL/6J mice; 5 × 10^5 cells, Day 1
  Mouse survival (number of surviving mice): 3
C57BL/6J mice; 5 × 10^5 cells, Day 2
  Mouse survival (number of surviving mice): 3
C57BL/6J mice; 5 × 10^5 cells, Day 3
  Mouse survival (number of surviving mice): 3
C57BL/6J mice; 5 × 10^5 cells, Day 4
  Mouse survival (number of surviving mice): 3
C57BL/6J mice; 5 × 10^5 cells, Day 5
  Mouse survival (number of surviving mice): 3
C57BL/6J mice; 5 × 10^5 cells, Day 6
  Mouse survival (number of surviving mice): 3
C57BL/6J mice; 5 × 10^5 cells, Day 7
  Mouse survival (number of surviving mice): 3
C57BL/6J mice; 5 × 10^5 cells, Day 8
  Mouse survival (number of surviving mice): 2
C57BL/6J mice; 5 × 10^5 cells, Day 9
  Mouse survival (number of surviving mice): 2
C57BL/6J mice; 5 × 10^5 cells, Day 10
  Mouse survival (number of surviving mice): 2
C57BL/6J mice; 5 × 10^5 cells, Day 11
  Mouse survival (number of surviving mice): 2
C57BL/6J mice; 5 × 10^5 cells, Day 12
  Mouse survival (number of surviving mice): 2
C57BL/6J mice; 5 × 10^5 cells, Day 13
  Mouse survival (number of surviving mice): 2
C57BL/6J mice; 5 × 10^5 cells, Day 19
  Mouse survival (number of surviving mice): 2
Hepatocyte stability
  Hepatocyte stability: Stable > couple hrs
A549 cells; 24 hours, up to 10 uM in FIG. 38
  Toxicity, CellTiter-Glo: No effect on CellTitre-Glo levels
A549 cells; concentration needed to decrease cell numbers in a cell culture assay
  Toxicity: >10 µM
